From ChEMBL document CHEMBL3217569, “N-(5-substituted thiazol-2-yl)-2-aryl-3-(tetrahydro-2H-pyran-4-yl) propanamides as glucokinase activators” (Medchemcomm, 2011) come the findings set out here.

In this test the target is T1, Hexokinase-4 (Homo sapiens, UniProt P35557).
T1 sequence (P35557 whole entry): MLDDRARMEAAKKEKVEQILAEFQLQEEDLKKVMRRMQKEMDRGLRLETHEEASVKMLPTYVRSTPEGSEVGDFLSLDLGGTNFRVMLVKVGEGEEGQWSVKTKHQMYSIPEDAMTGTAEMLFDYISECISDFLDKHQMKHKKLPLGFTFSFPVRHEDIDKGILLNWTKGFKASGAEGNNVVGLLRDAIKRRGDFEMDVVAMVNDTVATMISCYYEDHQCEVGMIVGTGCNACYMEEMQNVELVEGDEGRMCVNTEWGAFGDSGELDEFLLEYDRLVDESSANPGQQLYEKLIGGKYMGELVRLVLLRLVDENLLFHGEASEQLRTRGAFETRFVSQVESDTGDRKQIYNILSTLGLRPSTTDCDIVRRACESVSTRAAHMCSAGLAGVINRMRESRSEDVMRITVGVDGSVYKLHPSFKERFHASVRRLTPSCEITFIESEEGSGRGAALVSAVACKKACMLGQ
Kind of test: Activation of recombinant human His6-tagged glucokinase by G6PDH-coupled spectrophotometry.
As for `COC(=O)CCNC(=O)c1cnc(NC(=O)C(CC2CCOCC2)c2ccc(S(=O)(=O)C3CC3)cc2)s1` (racemic), the half-maximal effective concentration (EC50) (as a rule, the concentration that produces a half-maximal response) worked out at 520 nM.

Turning to `COC(=O)[C@H](CC(C)C)NC(=O)c1cnc(NC(=O)C(CC2CCOCC2)c2ccc(S(=O)(=O)C3CC3)cc2)s1` (mixture of isomers), the concentration for a half-maximal effect (EC50) turned out to be 1520 nM. With `O=C(O)CCNC(=O)c1cnc(NC(=O)C(CC2CCOCC2)c2ccc(S(=O)(=O)C3CC3)cc2)s1` (racemic) the figure was 1800 nM; with `CN1CCN(C(=O)Cn2cc(-c3cnc(NC(=O)C(CC4CCOCC4)c4ccc(S(=O)(=O)C5CC5)cc4)s3)nn2)CC1` (racemic), 790 nM.

Regarding `CC(C)[C@H](NC(=O)c1cnc(NC(=O)C(CC2CCOCC2)c2ccc(S(=O)(=O)C3CC3)cc2)s1)C(=O)O` (mixture of isomers), the EC50 worked out at 11300 nM. Turning to `CCOC(=O)CCn1cc(-c2cnc(NC(=O)C(CC3CCOCC3)c3ccc(S(=O)(=O)C4CC4)cc3)s2)nn1` (racemic), the EC50 came to 350 nM. With `O=C(Nc1ncc(-c2cn(CC(=O)N3CCOCC3)nn2)s1)C(CC1CCOCC1)c1ccc(S(=O)(=O)C2CC2)cc1` (racemic) the figure was 640 nM; with `CCOC(=O)Cn1cc(-c2cnc(NC(=O)C(CC3CCOCC3)c3ccc(S(=O)(=O)C4CC4)cc3)s2)nn1` (racemic), 330 nM; with `O=C(O)CCn1cc(-c2cnc(NC(=O)C(CC3CCOCC3)c3ccc(S(=O)(=O)C4CC4)cc3)s2)nn1` (racemic), 1350 nM. In the case of `COC(=O)[C@@H](NC(=O)c1cnc(NC(=O)C(CC2CCOCC2)c2ccc(S(=O)(=O)C3CC3)cc2)s1)C(C)C` (mixture of isomers), the half-maximal effective concentration (EC50) stood at 1440 nM.

Turning to `CC(C)C[C@H](NC(=O)c1cnc(NC(=O)C(CC2CCOCC2)c2ccc(S(=O)(=O)C3CC3)cc2)s1)C(=O)O` (mixture of isomers), the half-maximal effective concentration (EC50) is over 20000 nM.

As to `O=C(Nc1ncc(-c2cn(CCO)nn2)s1)C(CC1CCOCC1)c1ccc(S(=O)(=O)C2CC2)cc1` (racemic), the 50% effective concentration (EC50) amounted to 180 nM.

Consider `CCNC(=O)Cn1cc(-c2cnc(NC(=O)C(CC3CCOCC3)c3ccc(S(=O)(=O)C4CC4)cc3)s2)nn1` (racemic), for which the EC50 was over 20000 nM. Consider `O=C(Nc1ncc(-c2cn(CCOCc3ccccc3)nn2)s1)C(CC1CCOCC1)c1ccc(S(=O)(=O)C2CC2)cc1` (racemic), for which the concentration for a half-maximal effect (EC50) was found to be 290 nM. With `CCOC(=O)CCCn1cc(-c2cnc(NC(=O)C(CC3CCOCC3)c3ccc(S(=O)(=O)C4CC4)cc3)s2)nn1` (racemic), the half-maximal effective concentration (EC50) came out at 450 nM. For `CN(C)C(=O)Cn1cc(-c2cnc(NC(=O)C(CC3CCOCC3)c3ccc(S(=O)(=O)C4CC4)cc3)s2)nn1` (racemic), the concentration giving a half-maximal response (EC50) is 300 nM.

As to `O=C(Nc1ncc(-c2cn(CCO)nn2)s1)[C@H](CC1CCOCC1)c1ccc(S(=O)(=O)C2CC2)cc1`, the EC50 was 220 nM. Consider `CNC(=O)Cn1cc(-c2cnc(NC(=O)C(CC3CCOCC3)c3ccc(S(=O)(=O)C4CC4)cc3)s2)nn1` (racemic), for which the half-maximal effective concentration (EC50) amounted to 170 nM. Regarding `CCN(CC)C(=O)Cn1cc(-c2cnc(NC(=O)C(CC3CCOCC3)c3ccc(S(=O)(=O)C4CC4)cc3)s2)nn1` (racemic), the 50% effective concentration (EC50) turned out to be 210 nM. Turning to `O=C(Cn1cc(-c2cnc(NC(=O)C(CC3CCOCC3)c3ccc(S(=O)(=O)C4CC4)cc3)s2)nn1)NC1CC1` (racemic), the EC50 is over 20000 nM.
